Measurements from patent US6281234A, “(2-Acylaminothiazole-4-yl)acetic acid derivative” (American Home Products Corporation, priority 1999, dated 2001).

The compounds below were run against T1, Recombinant Rat Protein Tyrosine Phosphatase 1B (rPTP1B) (Rattus norvegicus, UniProt P20417) (assay: Inhibition of recombinant rat PTP1B (rPTP1B) activity using p-nitrophenylphosphate as substrate). Details: All compounds administered at 25 μM; p-nitrophenyl phosphate substrate, pH 7.4, 37° C., 30 min.
T1 construct: laboratory of Dr. Barry Goldstein, Thomas Jefferson University (obtained from, not a commercial purchase)
T1 sequence (P20417 1-432): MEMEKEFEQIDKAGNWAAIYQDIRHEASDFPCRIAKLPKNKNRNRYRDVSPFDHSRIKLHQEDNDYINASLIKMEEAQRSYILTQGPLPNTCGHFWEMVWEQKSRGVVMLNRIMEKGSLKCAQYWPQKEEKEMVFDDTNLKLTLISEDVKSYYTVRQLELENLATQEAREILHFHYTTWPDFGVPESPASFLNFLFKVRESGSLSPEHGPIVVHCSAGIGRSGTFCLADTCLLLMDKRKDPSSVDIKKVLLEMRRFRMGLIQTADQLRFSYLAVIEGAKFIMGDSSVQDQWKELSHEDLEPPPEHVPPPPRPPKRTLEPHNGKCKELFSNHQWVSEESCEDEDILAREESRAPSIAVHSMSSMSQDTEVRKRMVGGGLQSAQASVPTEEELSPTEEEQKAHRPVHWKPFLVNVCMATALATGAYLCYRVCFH
Type: biochemical
Procedure: Inhibition of Recombinant Rat Protein Tyrosine Phosphatase 1B (rPTP1B) Activity Using p-nitrophenylphosphate as a Substrate.
Measurement of pNPPase Activity.
The reaction is started by the addition of p-nitrophenyl phosphate and after 30 minutes at 37° C., the reaction is terminated by adding 1 ml of 0.1 N NaOH. […] The samples are read at 410 nm in a spectrophotometer and are evaluated based on a calibration curve of p-nitrophenol standard solution.
Compounds were screened robotically at a single concentration of ~25 μM. The results are expressed as percent of control, in that the amount of p-nitrophenol formed in the compound treated samples (nmol/minute/mg protein) is compared to the amount (nmol/minute/mg protein) formed in the untreated samples. p-Nitrophenylphosphatase activity is also determined in each experiment and is expressed per minute per mg protein.
For `[Na+].[Na+].[Na+].[O]=[V]([O-])([O-])[O-]` [Na3 VO4, reference compound], the “% inhibition” value was 86.3%.

Same assay, conditions: All compounds administered at 25 μM; p-nitrophenyl phosphate substrate, pH 7.4, 37° C., 30 min; 25 µM
`CCCCCCCC/C=C/CCCCCCCC(=O)Nc1nc(CC(=O)O)cs1` [Example 2, 2-[((E)-1-Oxo-9-octadecenyl)amino]-4-thiazoleacetic Acid] was tested, and the “% inhibition” value was 93.9%. `CCCCCCCC/C=C/CCCCCCCC(=O)Nc1nc(CC(=O)O)cs1` [Example 3] was tested, and the “% inhibition” value was 58.16%.

Same assay, conditions: pH 7.4, All compounds administered at 25 μM; p-nitrophenyl phosphate substrate, pH 7.4, 37° C., 30 min
`CCCCCCCC/C=C\CCCCCCCC(=O)Nc1nc(CC(=O)O)cs1` [Example 1, 2-[((Z)-1-Oxo-9-octadecenyl)amino]-4-thiazoleacetic Acid] was tested, and the inhibition at 25 µM was 93.4%. `CCCCCCCCC#CCCCCCCCC(=O)Nc1nc(CC(=O)O)cs1` [Example 4] was tested, and the inhibition at 25 µM was 84.8%. With `CCCCCCCCCCC/C=C\CCCCC(=O)Nc1nc(CC(=O)O)cs1` [Example 5] the inhibition at 25 µM was 95%. `CCCCCC/C=C\CCCCCCCC(=O)Nc1nc(CC(=O)O)cs1` [Example 6, 2-[((Z)-1-Oxo-9-hexadecenyl)amino]-4-thiazoleacetic Acid] gave an inhibition at 25 µM of 93.8%. `CCCCCC/C=C/CCCCCCCC(=O)Nc1nc(CC(=O)O)cs1` [Example 7, 2-[((E)-1-Oxo-9-hexadecenyl)amino]-4-thiazoleacetic Acid] was tested, and the inhibition at 25 µM was 83.8%. For `CCCCCC/C=C/CCCCCCCCCC(=O)Nc1nc(CC(=O)O)cs1` [Example 8, 2-[((E)-1-Oxo-11-octadecenyl)amino]-4-thiazoleacetic Acid], the inhibition at 25 µM was 96.6%. `CC/C=C\C/C=C\C/C=C\CCCCCCCC(=O)Nc1nc(CC(=O)O)cs1` [Example 9, 2-[((Z,Z,Z)-1-Oxo-9,12,15-octadecatrienyl)amino]-4-thiazoleacetic Acid] was tested, and the inhibition at 25 µM was 92.4%.
